Test results as given in US9309224B2 (Deciphera Pharmaceuticals, LLC, priority 2013, dated 2016).

How the values were obtained:
[1] = target: T1, unphosphorylated c-KIT kinase (uKIT, Seq. ID no. 2) (Homo sapiens, UniProt P10721); assay: uKit kinase assay (pyruvate kinase/lactate dehydrogenase coupled); type: biochemical; conditions: ATP 2000 μM
T1 construct: uKit with N-terminal GST fusion used for
Method: In this assay, the oxidation of NADH (thus the decrease at A340 nm) was continuously monitored spectrophometrically. […] The inhibition reaction was started by mixing serial diluted test compound with the above reaction mixture. The absorption at 340 nm was monitored continuously for 4 hours at 30° C. on Synergy 2 plate reader (BioTech).

[2] = target: T2, unphosphorylated PDGFRβ kinase (uPDGFRβ, Seq. ID No. 3) (Homo sapiens, UniProt P09619); assay: Unphosphorylated PDGFRβ kinase assay (pyruvate kinase/lactate dehydrogenase coupled); type: biochemical; conditions: ATP 500 μM
T2 construct: purchased DeCode
T2 sequence (P09619 557-1105): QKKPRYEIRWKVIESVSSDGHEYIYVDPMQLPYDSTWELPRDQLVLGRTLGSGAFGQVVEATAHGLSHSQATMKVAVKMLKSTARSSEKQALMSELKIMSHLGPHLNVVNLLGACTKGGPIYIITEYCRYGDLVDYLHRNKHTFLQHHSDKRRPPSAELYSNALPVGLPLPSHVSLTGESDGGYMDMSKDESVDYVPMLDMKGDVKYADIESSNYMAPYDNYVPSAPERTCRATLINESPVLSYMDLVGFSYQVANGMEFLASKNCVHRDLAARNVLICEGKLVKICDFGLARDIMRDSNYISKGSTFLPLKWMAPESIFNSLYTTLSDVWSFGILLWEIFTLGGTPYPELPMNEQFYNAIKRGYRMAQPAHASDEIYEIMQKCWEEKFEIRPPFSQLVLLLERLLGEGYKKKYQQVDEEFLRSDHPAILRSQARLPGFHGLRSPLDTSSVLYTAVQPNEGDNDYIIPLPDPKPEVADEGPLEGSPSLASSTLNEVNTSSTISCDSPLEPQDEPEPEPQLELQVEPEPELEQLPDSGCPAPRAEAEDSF
Excerpt: Unphosyhorylated PDGFRβ (uPDGFRβkinase (Seq. ID No. 3) assay

[3] = target: T3, unphosphorylated c-FMS kinase (uFMS, Seq. ID no. 1) (Homo sapiens, UniProt P07333); assay: uFMS kinase assay (pyruvate kinase/lactate dehydrogenase coupled); type: biochemical; conditions: ATP 500 μM
T3 construct: purchased Millipore
T3 sequence (P07333 538-972): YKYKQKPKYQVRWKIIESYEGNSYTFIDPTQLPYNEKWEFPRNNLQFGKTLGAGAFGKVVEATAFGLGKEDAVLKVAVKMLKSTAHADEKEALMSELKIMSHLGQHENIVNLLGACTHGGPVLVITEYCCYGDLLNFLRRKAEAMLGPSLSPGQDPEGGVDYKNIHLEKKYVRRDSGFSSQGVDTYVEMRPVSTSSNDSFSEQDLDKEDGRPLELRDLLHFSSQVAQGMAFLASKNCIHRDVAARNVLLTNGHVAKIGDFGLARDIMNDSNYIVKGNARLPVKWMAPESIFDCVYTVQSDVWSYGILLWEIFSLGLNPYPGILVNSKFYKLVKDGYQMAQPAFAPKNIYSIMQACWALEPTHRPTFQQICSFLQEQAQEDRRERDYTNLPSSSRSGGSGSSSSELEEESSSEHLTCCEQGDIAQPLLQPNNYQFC

[4] = target: T4, phospho-FMS in THP-1 cells (Homo sapiens, UniProt P07333); assay: Phospho-FMS ELISA assay in THP-1 cells; type: cell-based; conditions: 4 hours compound, M-CSF stimulated; read-out: pFMS inhibition in THP-1 cells
T4 construct: endogenous in cells; host or cells: THP-1 (ATCC TIB-202)
T4 sequence (P07333 20-972): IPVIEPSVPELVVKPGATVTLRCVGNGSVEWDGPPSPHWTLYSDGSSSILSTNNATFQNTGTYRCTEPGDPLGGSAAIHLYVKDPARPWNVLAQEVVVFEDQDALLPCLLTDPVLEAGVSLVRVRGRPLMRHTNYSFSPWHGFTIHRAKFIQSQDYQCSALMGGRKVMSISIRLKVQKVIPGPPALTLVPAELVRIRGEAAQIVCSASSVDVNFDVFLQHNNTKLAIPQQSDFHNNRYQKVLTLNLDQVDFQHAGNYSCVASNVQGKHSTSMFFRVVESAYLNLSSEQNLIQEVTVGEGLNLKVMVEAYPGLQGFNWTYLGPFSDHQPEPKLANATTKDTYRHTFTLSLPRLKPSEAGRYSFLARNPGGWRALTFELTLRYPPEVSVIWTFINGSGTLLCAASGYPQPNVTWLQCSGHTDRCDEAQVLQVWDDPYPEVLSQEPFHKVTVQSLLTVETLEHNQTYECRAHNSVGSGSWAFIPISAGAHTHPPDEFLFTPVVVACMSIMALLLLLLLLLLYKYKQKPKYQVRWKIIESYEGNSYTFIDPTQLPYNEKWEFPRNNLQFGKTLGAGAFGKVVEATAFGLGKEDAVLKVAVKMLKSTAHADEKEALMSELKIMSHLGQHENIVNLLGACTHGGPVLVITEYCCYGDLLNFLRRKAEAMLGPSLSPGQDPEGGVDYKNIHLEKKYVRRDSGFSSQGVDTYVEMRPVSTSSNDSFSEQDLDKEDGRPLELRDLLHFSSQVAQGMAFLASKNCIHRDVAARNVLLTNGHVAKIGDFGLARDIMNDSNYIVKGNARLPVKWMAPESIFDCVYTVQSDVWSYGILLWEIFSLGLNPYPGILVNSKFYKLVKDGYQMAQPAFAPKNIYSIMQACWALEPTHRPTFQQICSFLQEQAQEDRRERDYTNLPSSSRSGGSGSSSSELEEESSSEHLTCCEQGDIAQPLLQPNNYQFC
Method: In a separate 96 well black clear bottom plate, one hundred and fifty thousand THP-1 cells were added per well in 100 μL in assay medium. Fifty microliters of diluted compound was then added to the cells. […] Lysates were prepared and used to perform the phospho-FMS ELISA as described by the manufacturer (catalog #DYC3268, R & D Systems, Minneapolis, Minn.). GraphPad Prism was used to calculate IC50 values obtained from data generated from the ELISA assay.

osteoclast precursors = assay: Osteoclast tartrate-resistant acid phosphatase assay; type: cell-based; conditions: Osteoclast; 7-14 days, RANKL and M-CSF
M-NFS-60 cells = assay: M-NFS-60 cell proliferation assay; type: cell-based; conditions: 67 h incubation, resazurin
Method: M-NFS-60 Cell Proliferation Assay A serial dilution of test compound was dispensed into a 384-well black clear bottom plate (Corning, Corning, N.Y.). Two thousand five hundred cells were added per well in 50 μL complete growth medium. […] IC50 values were calculated from a series of percent inhibition values determined at a range of inhibitor concentrations using software routines as implemented in the GraphPad Prism software package.

c-FMS = assay: cFOS mRNA production in a c-FMS mouse spleen pharmacodynamic model; type: in vivo; conditions: out to 8 h post 30 mg/kg single oral dose, read-out: inhibition of cFOS mRNA levels
Method: Analysis of cFOS mRNA Production in a c-FMS Mouse Spleen Pharmacodynamic Model To examine the in vivo modulation of FMS activity by compounds of formula I, spleen samples from female DBA/1 mice were collected and analyzed for M-CSF stimulated production of cFOS mRNA. Briefly, six to seven week old female Taconic DBA/1BO J Bom Tac mice were treated with a single oral dose (by gavage) of either vehicle or compound. Plasma and spleen samples are collected from four mice at each timepoint 2, 4, 6, 8, 12, 18, and 24 hours after dosing. Fifteen minutes prior to euthanasia, all mice were injected IV with 1 μg (100 μL fixed volume) of M-CSF. M-CSF, Recombinant Mouse Macrophage Colony Stimulating Factor (36.4 kDa homodimer, ≧98% purity) was obtained from Gibco. All procedures carried out in this experiment were conducted in compliance with all the laws, regulations and guidelines of the National Institutes of Health (NIH). cFOS mRNA levels in spleen extracts were determined using a quantitative reverse transcriptase PCR kit from Life Technologies. Plasma levels of FMS inhibitors were determined by mass spectrometer analysis. The degree of FMS inhibition was correlative to the amount of decrease observed in cFOS mRNA levels in the spleen samples of treated animals compared to vehicle.

T1 sequence (P10721 with tags, fused parts or gaps): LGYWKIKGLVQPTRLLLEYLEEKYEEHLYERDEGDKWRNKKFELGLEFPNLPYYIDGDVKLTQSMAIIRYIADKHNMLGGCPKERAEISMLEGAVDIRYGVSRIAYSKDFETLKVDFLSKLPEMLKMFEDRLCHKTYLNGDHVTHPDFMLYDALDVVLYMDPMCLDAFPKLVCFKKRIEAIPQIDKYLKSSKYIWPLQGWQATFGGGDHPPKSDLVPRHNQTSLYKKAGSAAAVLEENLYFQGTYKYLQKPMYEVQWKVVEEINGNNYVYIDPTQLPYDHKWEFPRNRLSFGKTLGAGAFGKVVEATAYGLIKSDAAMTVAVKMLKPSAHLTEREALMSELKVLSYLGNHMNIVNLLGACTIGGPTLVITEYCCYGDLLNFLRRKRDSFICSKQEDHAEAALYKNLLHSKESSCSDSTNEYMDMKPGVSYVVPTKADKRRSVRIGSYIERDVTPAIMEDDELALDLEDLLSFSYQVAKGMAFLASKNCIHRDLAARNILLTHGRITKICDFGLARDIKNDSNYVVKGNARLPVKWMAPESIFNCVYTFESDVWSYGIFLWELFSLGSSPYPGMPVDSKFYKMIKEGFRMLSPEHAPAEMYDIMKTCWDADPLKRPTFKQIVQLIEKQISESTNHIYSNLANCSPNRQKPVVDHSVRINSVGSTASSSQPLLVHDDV

Row | Compound | IC50 [1] [nM] | IC50 [2] [nM] | IC50 [3] [nM] | IC50 [4] [nM] | IC50 (osteoclast precursors) [nM] | IC50 (M-NFS-60 cells) [nM] | inhibition in vivo at 30 mg/kg (c-FMS) [%]
1 | CC(=O)Nc1cc(Oc2ccc(NC(=O)NC(=O)C3CCCC3)nc2C)ccn1 [Example 8, N-((5-((2-acetamidopyridin-4-yl)oxy)-6-methylpyridin-2-yl)carbamoyl)cyclopentanecarboxamide] | 100 to 1000 | 10 to 100 | < 10 | < 10 | < 10 | < 10 | ≥ 50
2 | CN1CCC(C(=O)Nc2cc(Oc3ccc(NC(=O)NC(=O)C(C)(C)C)nc3)ccn2)CC1 [Example 21, 1-methyl-N-(4-((6-(3-pivaloylureido)pyridin-3-yl)oxy)pyridin-2-yl)piperidine-4-carboxamide] | > 1000 | > 1000 | < 10 | 10 to 100 | < 10 | 10 to 100 | ≥ 50
3 | Cc1nc(NC(=O)NC(=O)C(C)(C)C)ccc1Oc1ccnc(NC(=O)C2CC2)c1 [Example 11, N-(4-((2-methyl-6-(3-pivaloylureido)pyridin-3-yl)oxy)pyridin-2-yl)cyclopropanecarboxamide] | > 1000 | 10 to 100 | < 10 | < 10 | < 10 | < 10 | ≥ 50
4 | CNC(=O)c1cc(Oc2ccc(NC(=O)NC(=O)C(C)(C)C)nc2)ccn1 [Example 34, N-methyl-4-((6-(3-pivaloylureido)pyridin-3-yl)oxy)picolinamide] | > 1000 | > 1000 | < 10 | 10 to 100 | 10 to 100 | 10 to 100 | ≥ 50
5 | CC(=O)Nc1cc(Oc2ccc(NC(=O)NC(=O)C(C)(C)C)nc2)ccn1 [Example 3, N-((5-((2-acetamidopyridin-4-yl)oxy)pyridin-2-yl)carbamoyl)pivalamide] | > 1000 | > 1000 | < 10 | < 10 | < 10 | 10 to 100 | ≥ 50
6 | CN(C)C(=O)Nc1cc(Oc2ccc(NC(=O)NC(=O)C(C)(C)C)nc2)ccn1 [Example 23, N-((5-((2-(3,3-dimethylureido)pyridin-4-yl)oxy)pyridin-2-yl)carbamoyl)pivalamide] | > 1000 | 100 to 1000 | < 10 | < 10 | < 10 | < 10 | ≥ 50
7 | COC(C)(C)C(=O)NC(=O)Nc1ccc(Oc2ccnc(NC(C)=O)c2)cn1 [Example 26, N-((5-((2-acetamidopyridin-4-yl)oxy)pyridin-2-yl)carbamoyl)-2-methoxy-2-methylpropanamide] | > 1000 | 100 to 1000 | < 10 | < 10 | < 10 | 10 to 100 | ≥ 50
8 | CC(=O)Nc1cc(Oc2ccc(NC(=O)NC(=O)C3(C)CC3)nc2)ccn1 [Example 19, N-((5-((2-acetamidopyridin-4-yl)oxy)pyridin-2-yl)carbamoyl)-1-methylcyclopropanecarboxamide] | 100 to 1000 | 100 to 1000 | 10 to 100 | 10 to 100 | < 10 | 10 to 100 | –
9 | CC(=O)Nc1cc(Oc2ccc(NC(=O)NC(=O)C3CCCC3)nc2)ccn1 [Example 2, N-((5-((2-acetamidopyridin-4-yl)oxy)pyridin-2-yl)carbamoyl)cyclopentanecarboxamide] | 100 to 1000 | < 10 | < 10 | 10 to 100 | < 10 | 10 to 100 | –
10 | CCC(=O)Nc1cc(Oc2ccc(NC(=O)NC(=O)C3(C)CC3)nc2)ccn1 [Example 36, 1-methyl-N-((5-((2-propionamidopyridin-4-yl)oxy)pyridin-2-yl)carbamoyl)cyclopropanecarboxamide] | 100 to 1000 | 10 to 100 | < 10 | 10 to 100 | < 10 | 10 to 100 | –
11 | CC(=O)Nc1cc(Oc2ccc(NC(=O)NC(=O)C(C)(C)C)nc2C)ccn1 [Example 9, N-((5-((2-acetamidopyridin-4-yl)oxy)-6-methylpyridin-2-yl)carbamoyl)pivalamide] | > 1000 | > 1000 | < 10 | < 10 | < 10 | < 10 | –

Now from value to compound, other results behind:

Row | IC50 [1] [nM] | IC50 [2] [nM] | IC50 [3] [nM] | IC50 [4] [nM] | IC50 (osteoclast precursors) [nM] | Compound | IC50 (M-NFS-60 cells) [nM] | inhibition in vivo at 30 mg/kg (c-FMS) [%]
12 | > 1000 | 100 to 1000 | < 10 | < 10 | < 10 | CC(C)(C)C(=O)NC(=O)Nc1ccc(Oc2ccnc(NC(=O)N3CCNCC3)c2)cn1 [Example 83, N-(4-((6-(3-pivaloylureido)pyridin-3-yl)oxy)pyridin-2-yl)piperazine-1-carboxamide] | 10 to 100 | ≥ 50
13 | > 1000 | > 1000 | < 10 | < 10 | 10 to 100 | Cc1nc(NC(=O)NC(=O)C(C)(C)C)ccc1Oc1ccnc(NC(=O)N(C)C)c1 [Example 62, N-((5-((2-(3,3-dimethylureido)pyridin-4-yl)oxy)-6-methylpyridin-2-yl)carbamoyl)pivalamide] | < 10 | ≥ 50
14 | > 1000 | 100 to 1000 | < 10 | < 10 | < 10 | CN(C)C1CCN(C(=O)Nc2cc(Oc3ccc(NC(=O)NC(=O)C(C)(C)C)nc3)ccn2)CC1 [Example 76, 4-(dimethylamino)-N-(4-((6-(3-pivaloylureido)pyridin-3-yl)oxy)pyridin-2-yl)piperidine-1-carboxamide] | 10 to 100 | –
15 | 100 to 1000 | 10 to 100 | < 10 | < 10 | < 10 | CC(=O)Nc1cc(Oc2cnc(NC(=O)NC(=O)C(C)(C)C)cc2C)ccn1 [Example 42, N-((5-((2-acetamidopyridin-4-yl)oxy)-4-methylpyridin-2-yl)carbamoyl)pivalamide] | < 10 | –
16 | > 1000 | 100 to 1000 | < 10 | < 10 | < 10 | CN1CCN(C2CCN(C(=O)Nc3cc(Oc4ccc(NC(=O)NC(=O)C(C)(C)C)nc4)ccn3)CC2)CC1 [Example 81, 4-(4-methylpiperazin-1-yl)-N-(4-((6-(3-pivaloylureido)pyridin-3-yl)oxy)pyridin-2-yl)piperidine-1-carboxamide] | 10 to 100 | –
